Assay results published in patent publication US7691883B2, “Cinnamoyl compound and use of the same” (Sumitomo Chemical Company, Limited, priority 2003, dated 2010).

Legend:
[1] = Ability of a test compound to regulate transcription of a Type I collagen gene using the expression level of a reporter gene (COL-Luc luciferase) as an index; assay type: cell-based; conditions: final concentration 1 μM; normal human fetal skin fibroblast transfected with COL-Luc; TGF-β, 40 hours; read-out: inhibition percentage (inhibitory effect on the ability of TGF-β to promote transcription of a Type I collagen gene)
Description: 1×10^8 cells of a normal human fetal skin fibroblast (Clontech, catalogue No. CC-2509) were cultured at 37° C. overnight under 5% CO2 atmosphere. After the cultured cells were washed with a sodium phosphate buffer (hereinafter, referred to as PBS) twice, 3 ml of PBS was added thereto and the cells were scraped away the wall of a vessel using a cell scraper (Nalgen, catalogue No. 179693). The scraped cells were collected by centrifugation (1,500 rpm, 4° C., 15 min), and these were suspended in 20 ml of PBS and centrifuged again. To the resulting precipitates were added 11 ml of Solution 2 and 4.8 μl of pronase of DNA Extraction Kit (Stratagene, catalogue No. 200600). After shaken at 60° C. for 1 hour, the resulting mixture was allowed to stand in ice for 10 minutes. Then, 4 ml of Solution 3 of the kit was added to the mixture. After mixed, the mixture was allowed to stand in ice for 5 minutes and then centrifuged (3,000 rpm, 4° C., 15 min) to recover a supernatant. To the recovered supernatant was added 2 μl of RNase per 1 ml of the supernatant and the mixture was allowed to stand at 37° C. for 15 minutes. To the mixture was added 2-fold volume of ethanol. After mixed, a white thread-like substance (genomic DNA) appeared and the substance was recovered. The recovered genomic DNA washed with 70% ethanol and then air-dried. The air-dried genomic DNA was dissolved in 500 μl of 10 mM Tris-HCl, 1 mM EDTA (pH 8.0) (hereinafter, referred to as TE).
The resulting genomic DNA solution (the amount equivalent to 1 μg of genomic DNA), each 1 μl (10 pmol/μl) of an oligonucleotide consisting of the nucleotide sequence represented by SEQ ID No:1 and an oligonucleotide consisting of the nucleotide sequence represented by SEQ ID No:2, 29 μL of distilled water, 5 μl of the buffer attached to TaKaRa LA Taq (TAKARA SHUZO, catalogue No. RR002A), 5 μL of a Mg^2+ solution, 5 μL of a dNTP mixture and 0.5 μl of TaKaRa LA Taq (TAKARA SHUZO, catalogue No. RR002A) were mixed. After the resulting mixed solution was incubated at 94° C. for 5 minutes, the mixed solution was subjected to 30 cycles, in which one cycle consists of incubation at 94° C. for 1 minute, at 60° C. for 1 minute and then at 72° C. for 1 minute. The mixed solution was electrophoresed on a 2% agarose gel to recover about 0.5 kb of a DNA. The recovered DNA was treated with phenol/chloroform and then precipitated with ethanol to recover the DNA. The resulting DNA was dissolved in ultrapure water. To this solution were added 2.5 μl of NheI and 2.5 μl of HindIII, and then incubated at 37° C. for 3 hours. Then, the solution was electrophoresed on a 2% agarose gel to recover about 3.5 kb of a DNA. The recovered DNA was precipitated with ethanol to recover again the DNA (hereinafter, referred to as the collagen promoter DNA).
On the other hand, the vector pGL3 (Promega, catalogue No. E1751) having the nucleotide sequence encoding firefly luciferase was digested with NheI and HindIII, and then subjected to agarose gel electrophoresis as described above to recover about 5 kb of a DNA. The recovered DNA was precipitated with ethanol to recover the DNA again. To the recovered DNA were added 44 μl of distilled water, 5 μl of Buffer attached to Alkaline Phosphatase (TAKARA SHUZO, catalogue No. 2120A) and 1 μl of Alkaline Phosphatase (TAKARA SHUZO, catalogue No. 2120A). The mixed solution was incubated at 65° C. for 30 minutes. Then, the mixed solution was treated with phenol/chloroform twice, and precipitated with ethanol to recover the DNA (hereinafter referred to as the Luc vector DNA). Then, after about 20 ng of the collagen promoter DNA and about 20 ng of the Luc vector DNA were mixed, the same amount of a DNA Ligation kit Ver2 enzyme solution was added and this was incubated overnight at 16° C. To the mixed solution was added Escherichia coli 5Hdα (TOYOBO, catalogue No. DNA-903), this was allowed to stand in ice for 30 minutes, and then incubated at 42° C. for 45 seconds. […]

[2] = system: mRNA of Type I collagen gene in renal glomerulus; experiment: Improvement of chronic renal failure: mRNA of Type I collagen gene in renal glomerulus of anti-Thy-1 antibody rats; assay type: in vivo, rat; set-up: key to mRNA of collagen gene: Type I collagen amount / GAPDH amount; conditions: for ability to improve chronic renal failure: anti-Thy-1 antibody rats, 15 mg/kg/day orally for 7 days; for mRNA of collagen gene: male Wistar rats given anti-Thy-1 antibody (IgG) i.v., compound orally 15 mg/kg/day for 7 days, Type I collagen amount/GAPDH amount, renal cortex, control group 5.6, normal group 1.7
Description: IgG was purified from an ascites-lyophilized powder (CEDARLANE, lot No. 05122) containing an anti-rat CD90 (Thy1.1) monoclonal antibody using MAbTrap kit (Amersham Biosciences, catalogue No. 17-1128-01).
6 ml of a binding buffer was added to 3 ml of ascites to sufficiently recover it, and this was passed through a 0.22 μm filter. The resulting solution was applied to a pre-bufferized column, and the column was then washed with 10 ml of a binding buffer. Thereafter, the column was eluted with 5 ml of an elution buffer. From washing, each 1 ml was fractionated, and the protein concentration of each fraction was measured using bovine serum albumin as a standard. A single peak was confirmed from an elution pattern, and an IgG fraction was dialyzed against a physiological saline overnight at 4° C. The protein concentration of the resulting anti-Thy-1 antibody (IgG) was calculated.
The present compounds represented by the compound numbers (1a), (4a), (9a), (14a), (21a), (33a), (19b) or (21d) (hereinafter, referred to as the present compound (1a), (4a), (9a), (14a), (21a), (33a), (19b) or the present compound (21d), respectively) and a corn oil which is a medium were weighed. These were mixed using a mortar and a pestle to prepare a […]. Using four 7-week old male Wistar rats [Nippon Charles River] per group, 60 μg/ml of the anti-Thy-1 antibody (IgG) or a physiological saline was intravenously injected via a tail vein at 5 ml/kg. Immediately after administration of the anti-Thy-1 antibody (IgG) or a physiological saline, the present compound or a corn oil was repeatedly orally administered for 7 days at 5 ml/kg. A dose of the present compound was 15 mg/kg/day.
On the next day of final administration, a rat reared as described in the above (2) was slaughtered by collection of whole blood, and kidneys were isolated. A whole RNA was separated from the cortex of the isolated kidney using RNeasy Mini Kit (QIAGEN, catalogue No. 74106). To 5 μl (50 ng) of the separated whole RNA were added 1 μl of 20 μM oligo dT and 4 μl of RNase-free distilled water. After the mixture was incubated at 65° C. for 5 minutes, it was immediately ice-cooled. To 10 μl of the solution were added 4 μl of 5× buffer, 2.4 μl of MgCl2, 1 μl of 10 mM dNTP, 1 μl of RNasin, 1 μl of Improm II and 0.6 μl of RNase-free distilled water (all available from Promega), and a reverse transcription reaction was performed under the condition of at 25° C. for 5 minutes, at 42° C. for 1 hour, and at 70° C. for 15 minutes.
Into 5 μl of the reverse transcription reaction solution were mixed each 2 μl of each 1.25 pmol/μl of primers represented by SEQ ID NOS: 3 and 4, 1.25 μl of a probe (FAM-ctcgccttca tgcgcctgct agc-TAMRA) for detecting DNA of a Type I collagen gene represented by SEQ ID No:5, each 0.25 μl of Rodent GAPDH primers, 0.25 μl of a Rodent GAPDH probe, 12.5 μl of TaqMan Universal PCR Master Mix (all available from Applied Biosystem) and 1.5 μl of sterilized water in a well of Optical 96-Well Reaction Plate (Applied Biosystem, catalogue No. N801-0560). As a standard, in place of 5 μl of the reverse transcription reaction solution, each 5 μl of 500, 250, 125, 62.5, 31.25, 15.625 ng/μl rat renal cortex cDNA which had been prepared in advance was used. Thereafter, using Gene Amp 7900 (Applied Biosystem), PCR was performed under the condition of at 50° C. for 5 minutes, and 40 cycles in which one cycle is at 95° C. for 15 seconds and at 60° C. for 1 minute. For quantization, a standard straight line was made, the Type I collagen and GAPDH amounts of each sample were calculated, and the transcription amount was calculated according to the following equation: Type I collagen transcription amount=Type I collagen amount/GAPDH amount
For statistical treatment of the resulting result, F-test of a variance ratio was performed between two groups of the anti-Thy-1 antibody and corn oil-administered groups and other each group. […]

| SMILES | inhibition at 1 µM [1] [%] | ability to improve chronic renal failure [2] | mRNA of collagen gene [2] |
| --- | --- | --- | --- |
| Cc1cc(O)c(C(=O)C=Cc2cccc(C=CC#N)c2)c(=O)o1 [(1a), 4-hydroxy-3-[3-[3-(2-cyanoethenyl)phenyl]-1-oxo-2-propenyl]-6-methyl-2H-pyran-2-one] | ≥ 70 | have the ability to improve chronic renal failure | 1.9 |
| C=CCOc1cccc(C=CC(=O)c2c(O)cc(C)oc2=O)c1 [(4a), 4-hydroxy-3-[3-(3-allyloxyphenyl)-1-oxo-2-propenyl]-6-methyl-2H-pyran-2-one] | ≥ 70 | have the ability to improve chronic renal failure | 3.2 |
| C#CCOc1ccc(C=CC(=O)c2c(O)cc(C)oc2=O)cc1 [(9a), 4-hydroxy-3-[3-(4-propargyloxyphenyl)-1-oxo-2-propenyl]-6-methyl-2H-pyran-2-one] | – | have the ability to improve chronic renal failure | 3.4 |
| Cc1cc(O)c(C(=O)C=Cc2cccc(OCC#N)c2)c(=O)o1 [(14a), 4-hydroxy-3-[3-[3-(cyanomethoxy)phenyl]-1-oxo-2-propenyl]-6-methyl-2H-pyran-2-one] | ≥ 70 | have the ability to improve chronic renal failure | 2.2 |
| COC(=O)CNC(=O)c1cccc(C=CC(=O)c2c(N3CCOCC3)cc(C)oc2=O)c1 [(19b), 4-morpholino-3-[3-[3-[[(methoxycarbonylmethyl)amino]carbonyl]phenyl]-1-oxo-2-propenyl]-6-methyl-2H-pyran-2-one] | ≥ 70 | have the ability to improve chronic renal failure | 2.9 |
| COCC(=O)Nc1cccc(C=CC(=O)c2c(O)cc(C)oc2=O)c1 [(21a), 4-hydroxy-3-[3-[3-(methoxyacetylamino)phenyl]-1-oxo-2-propenyl]-6-methyl-2H-pyran-2-one] | ≥ 70 | have the ability to improve chronic renal failure | 1.7 |
| COCC(=O)Nc1cccc(C=CC(=O)c2c(O)c3ccccc3oc2=O)c1 [(21d), 4-hydroxy-3-[3-[3-(methoxyacetylamino)phenyl]-1-oxo-2-propenyl]-2H-1-benzopyran-2-one] | ≥ 70 | have the ability to improve chronic renal failure | 2.2 |
| COC(=O)CNC(=O)c1cccc(C=CC(=O)c2c(O)cc(C)oc2=O)c1 [(33a), 4-hydroxy-3-[3-[3-[[(methoxycarbonylmethyl)amino]carbonyl]phenyl]-1-oxo-2-propenyl]-6-methyl-2H-pyran-2-one] | ≥ 70 | have the ability to improve chronic renal failure | 3.3 |
